The source of these data is patent US20230148214A1, “INDAZOLES AND AZAINDAZOLES AS LRRK2 INHIBITORS” (ESCAPE Bio, Inc., priority 2020, published 2023).

For one assay, the target named is T1, LRRK2 WT (Homo sapiens, UniProt Q5S007).
T1 construct: purchased Life Technologies PR8604B
Put plainly: LRRK2 Kinase Activity Assay (LanthaScreen TR-FRET), wild type. The assay is classed as biochemical. Conditions: recombinant wild type LRRK2, 25 μM ATP, 400 nM LRRKtide, 60 min; class symbols. In outline:
(§1)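 IC50 fitted to the compound-dependent loss of TR-FRET signal. Each kinase form, wild type or G2019S, phosphorylated the fluorescein-tagged ERM-derived LRRKtide in the presence of ATP and compound dilutions over 60 min at room temperature; quench contained 10 mM EDTA and 2 nM anti-pERM antibody (final).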

For another assay, the target named is T2, LRRK2 G2019S (Homo sapiens, UniProt Q5S007, G2019S).
T2 construct: purchased Life Technologies PV4881
Put plainly: LRRK2 Kinase Activity Assay (LanthaScreen TR-FRET), G2019S. The class given is biochemical. Conditions: recombinant G2019S-LRRK2, 25 μM ATP, 400 nM LRRKtide, 60 min; class symbols. An outline of the steps:
as §1
In general terms: In TR-FRET formats the signal depends on donor and acceptor labels being close together.

Structures are written as SMILES.

T2 sequence (Q5S007 whole entry G2019S): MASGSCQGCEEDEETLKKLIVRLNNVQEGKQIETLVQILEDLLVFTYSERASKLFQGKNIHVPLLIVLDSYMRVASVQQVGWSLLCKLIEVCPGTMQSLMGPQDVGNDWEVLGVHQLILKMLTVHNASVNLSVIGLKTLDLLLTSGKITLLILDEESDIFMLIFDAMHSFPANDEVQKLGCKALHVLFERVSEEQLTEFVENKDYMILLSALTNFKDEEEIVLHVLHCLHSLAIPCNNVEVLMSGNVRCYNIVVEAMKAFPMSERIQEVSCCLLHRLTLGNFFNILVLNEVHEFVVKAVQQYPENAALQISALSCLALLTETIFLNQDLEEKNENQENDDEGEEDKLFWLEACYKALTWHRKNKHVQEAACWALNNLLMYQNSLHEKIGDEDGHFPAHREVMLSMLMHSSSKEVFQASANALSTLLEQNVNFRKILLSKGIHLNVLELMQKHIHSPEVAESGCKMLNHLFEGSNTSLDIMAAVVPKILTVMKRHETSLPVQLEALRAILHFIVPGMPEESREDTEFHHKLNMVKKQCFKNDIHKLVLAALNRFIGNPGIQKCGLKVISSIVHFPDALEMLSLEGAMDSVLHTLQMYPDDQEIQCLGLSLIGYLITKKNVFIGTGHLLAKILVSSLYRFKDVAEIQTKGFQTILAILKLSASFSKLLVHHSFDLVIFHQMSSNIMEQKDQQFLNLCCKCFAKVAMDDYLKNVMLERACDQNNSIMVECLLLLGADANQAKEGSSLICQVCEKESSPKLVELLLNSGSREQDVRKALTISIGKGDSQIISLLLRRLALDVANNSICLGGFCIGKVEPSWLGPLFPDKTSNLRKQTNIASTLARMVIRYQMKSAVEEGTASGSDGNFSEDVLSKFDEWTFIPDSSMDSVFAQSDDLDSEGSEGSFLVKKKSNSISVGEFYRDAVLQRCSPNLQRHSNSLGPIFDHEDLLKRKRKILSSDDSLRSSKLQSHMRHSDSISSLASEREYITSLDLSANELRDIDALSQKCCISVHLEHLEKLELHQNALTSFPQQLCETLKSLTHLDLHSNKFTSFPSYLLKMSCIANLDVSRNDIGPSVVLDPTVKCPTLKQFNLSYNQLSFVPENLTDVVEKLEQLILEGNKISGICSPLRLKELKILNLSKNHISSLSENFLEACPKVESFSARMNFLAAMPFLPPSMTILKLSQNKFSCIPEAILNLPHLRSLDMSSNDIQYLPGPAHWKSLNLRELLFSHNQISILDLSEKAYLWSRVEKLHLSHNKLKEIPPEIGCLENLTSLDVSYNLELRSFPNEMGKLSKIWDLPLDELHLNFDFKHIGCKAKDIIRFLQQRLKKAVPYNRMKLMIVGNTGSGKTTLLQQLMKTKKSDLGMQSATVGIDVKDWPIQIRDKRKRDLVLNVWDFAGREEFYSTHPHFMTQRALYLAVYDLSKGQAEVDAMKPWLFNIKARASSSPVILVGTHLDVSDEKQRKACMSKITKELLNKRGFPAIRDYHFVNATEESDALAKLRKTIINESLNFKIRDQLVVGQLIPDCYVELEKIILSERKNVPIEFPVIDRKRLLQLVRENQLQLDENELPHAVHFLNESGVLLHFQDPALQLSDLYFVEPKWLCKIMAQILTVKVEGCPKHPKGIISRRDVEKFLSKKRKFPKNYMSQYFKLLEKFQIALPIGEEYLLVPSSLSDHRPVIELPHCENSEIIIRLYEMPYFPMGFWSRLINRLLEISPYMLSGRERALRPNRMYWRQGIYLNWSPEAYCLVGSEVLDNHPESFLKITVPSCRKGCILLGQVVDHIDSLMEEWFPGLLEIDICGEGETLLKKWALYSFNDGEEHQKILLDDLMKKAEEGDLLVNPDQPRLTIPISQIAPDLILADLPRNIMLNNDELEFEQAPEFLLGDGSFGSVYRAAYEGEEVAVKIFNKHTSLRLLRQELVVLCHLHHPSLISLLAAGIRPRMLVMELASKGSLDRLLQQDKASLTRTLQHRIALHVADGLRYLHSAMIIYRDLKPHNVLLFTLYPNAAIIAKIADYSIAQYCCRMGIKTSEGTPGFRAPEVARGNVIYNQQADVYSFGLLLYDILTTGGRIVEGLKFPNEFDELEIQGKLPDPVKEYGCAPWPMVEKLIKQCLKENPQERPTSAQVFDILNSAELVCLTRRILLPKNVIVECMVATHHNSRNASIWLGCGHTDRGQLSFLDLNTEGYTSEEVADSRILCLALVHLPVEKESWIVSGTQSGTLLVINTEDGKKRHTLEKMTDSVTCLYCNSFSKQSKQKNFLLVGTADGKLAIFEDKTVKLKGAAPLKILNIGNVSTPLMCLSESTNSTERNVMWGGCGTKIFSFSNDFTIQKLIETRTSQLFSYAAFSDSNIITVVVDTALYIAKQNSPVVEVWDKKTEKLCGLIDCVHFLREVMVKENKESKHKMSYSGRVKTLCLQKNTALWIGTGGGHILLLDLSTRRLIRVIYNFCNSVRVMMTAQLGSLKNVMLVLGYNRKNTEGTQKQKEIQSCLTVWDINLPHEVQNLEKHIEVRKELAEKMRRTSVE
T1 sequence (Q5S007 whole entry): as the sequence (Q5S007 whole entry G2019S) above, with S2019G counted along it

Regarding `N#Cc1ccc2c(c1)CC[C@@H]2Nc1ccc2[nH]nc(C3CC3)c2c1` (single isomer, unassigned) [Example 134, enantiomer 1, 1-((3-Cyclopropyl-1H-indazol-5-yl)amino)-2,3-dihydro-1H-indene-5-carbonitrile], the IC50 at LRRK2 WT fell in the range of 1000 to 10000 nM; on LRRK2 G2019S, 100 to 1000 nM.
The matching figures for `N#Cc1ccc2c(c1)CC[C@@H]2Nc1ccc2[nH]nc(C3CC3)c2c1` (single isomer, unassigned) [Example 134, enantiomer 2, 1-((3-Cyclopropyl-1H-indazol-5-yl)amino)-2,3-dihydro-1H-indene-5-carbonitrile]: 1000 to 10000 nM and 100 to 1000 nM.
The like results for `N#Cc1ccc2c(n1)CCC[C@@H]2Oc1ccc2[nH]nc(I)c2c1` (single isomer, unassigned) [Example 135, enantiomer 1, 5-((3-Iodo-1H-indazol-5-yl)oxy)-5,6,7,8-tetrahydroquinoline-2-carbonitrile] were, in that order, 100 to 1000 nM and < 100 nM.
The matching figures for `N#Cc1ccc2c(n1)CCC[C@@H]2Oc1ccc2[nH]nc(I)c2c1` (single isomer, unassigned) [Example 135, enantiomer 2, 5-((3-Iodo-1H-indazol-5-yl)oxy)-5,6,7,8-tetrahydroquinoline-2-carbonitrile]: 100 to 1000 nM and < 100 nM.
Turning to `N#Cc1cnc2c(c1)CCC[C@@H]2Oc1ccc2[nH]nc(C3CC3)c2c1` (single isomer, unassigned) [Example 136, enantiomer 1, 8-((3-Cyclopropyl-1H-indazol-5-yl)oxy)-5,6,7,8-tetrahydroquinoline-3-carbonitrile], the IC50 was 100 to 1000 nM at LRRK2 WT and < 100 nM on LRRK2 G2019S.
As to `N#Cc1cnc2c(c1)CCC[C@@H]2Oc1ccc2[nH]nc(I)c2c1` (single isomer, unassigned) [Example 137, enantiomer 1, 8-((3-Iodo-1H-indazol-5-yl)oxy)-5,6,7,8-tetrahydroquinoline-3-carbonitrile], the IC50 at LRRK2 WT and on LRRK2 G2019S was < 100 nM each time.
Consider `N#Cc1cnc2c(c1)CCC[C@@H]2Oc1ccc2[nH]nc(I)c2c1` (single isomer, unassigned) [Example 137, enantiomer 2, 8-((3-Iodo-1H-indazol-5-yl)oxy)-5,6,7,8-tetrahydroquinoline-3-carbonitrile], for which the values for the IC50 on LRRK2 WT and on LRRK2 G2019S were 100 to 1000 nM and < 100 nM, respectively.
The like results for `N#Cc1ccc2c(c1)C(F)(F)C[C@@H]2Nc1ccc2[nH]nc(-c3cnco3)c2c1` (single isomer, unassigned) [Example 138, enantiomer 1, 3,3-Difluoro-1-((3-(oxazol-5-yl)-1H-indazol-5-yl)amino)-2,3-dihydro-1H-indene-5-carbonitrile] were, in that order, < 100 nM and < 100 nM.
The like results for `N#Cc1ccc2c(c1)C(F)(F)C[C@@H]2Nc1ccc2[nH]nc(-c3cnco3)c2c1` (single isomer, unassigned) [Example 138, enantiomer 2, 3,3-Difluoro-1-((3-(oxazol-5-yl)-1H-indazol-5-yl)amino)-2,3-dihydro-1H-indene-5-carbonitrile] were, in that order, 100 to 1000 nM and < 100 nM.
The matching figures for `N#Cc1ccc2c(c1)CCC[C@@H]2Nc1ccc2[nH]nc(CC3CC3)c2c1` (single isomer, unassigned) [Example 139, enantiomer 1, 5-((3-(Cyclopropylmethyl)-1H-indazol-5-yl)amino)-5,6,7,8-tetrahydronaphthalene-2-carbonitrile]: 1000 to 10000 nM and 1000 to 10000 nM.
`N#Cc1ccc2c(c1)CCC[C@@H]2Nc1ccc2[nH]nc(CC3CC3)c2c1` (single isomer, unassigned) [Example 139, enantiomer 2, 5-((3-(Cyclopropylmethyl)-1H-indazol-5-yl)amino)-5,6,7,8-tetrahydronaphthalene-2-carbonitrile]: the IC50 is 1000 to 10000 nM at LRRK2 WT and < 100 nM at LRRK2 G2019S.
`N#Cc1ccc2c(c1)C1(CC1)C[C@@H]2Nc1ccc2[nH]nc(-c3cnco3)c2c1` (single isomer, unassigned) [Example 140, enantiomer 1, 3′-((3-(Oxazol-5-yl)-1H-indazol-5-yl)amino)-2′,3′-dihydrospiro[cyclopropane-1,1′-indene]-6′-carbonitrile]: the IC50 on LRRK2 WT is 100 to 1000 nM; on LRRK2 G2019S, < 100 nM.
The matching figures for `N#Cc1ccc2c(c1)C1(CC1)C[C@@H]2Nc1ccc2[nH]nc(-c3cnco3)c2c1` (single isomer, unassigned) [Example 140, enantiomer 2, 3′-((3-(Oxazol-5-yl)-1H-indazol-5-yl)amino)-2′,3′-dihydrospiro[cyclopropane-1,1′-indene]-6′-carbonitrile]: 100 to 1000 nM and < 100 nM.
As to `N#Cc1cnc2c(c1)CCC[C@@H]2Oc1ccc2[nH]nc(-c3cnn(C(F)F)c3)c2c1` (single isomer, unassigned) [Example 141, enantiomer 1, 8-((3-(1-(Difluoromethyl)-1H-pyrazol-4-yl)-1H-indazol-5-yl)oxy)-5,6,7,8-tetrahydroquinoline-3-carbonitrile], the IC50 at LRRK2 WT and on LRRK2 G2019S was < 100 nM in each case.
Take `N#Cc1cnc2c(c1)CCC[C@@H]2Nc1ccc2[nH]nc(-c3cncs3)c2c1` (single isomer, unassigned) [Example 142, enantiomer 1, 8-((3-(Thiazol-5-yl)-1H-indazol-5-yl)amino)-5,6,7,8-tetrahydroquinoline-3-carbonitrile]: the IC50 was 100 to 1000 nM on LRRK2 WT and < 100 nM on LRRK2 G2019S.
The like results for `N#Cc1ccc2c(c1Cl)CCC[C@@H]2Nc1ccc2[nH]nc(-c3cnco3)c2c1` (single isomer, unassigned) [Example 143, enantiomer 1, 1-Chloro-5-((3-(oxazol-5-yl)-1H-indazol-5-yl)amino)-5,6,7,8-tetrahydronaphthalene-2-carbonitrile] were, in that order, 100 to 1000 nM and < 100 nM.
The like results for `N#Cc1cnc2c(c1Cl)CCC[C@@H]2Nc1ccc2[nH]nc(-c3cnco3)c2c1` (single isomer, unassigned) [Example 144, enantiomer 1, 4-Chloro-8-((3-(oxazol-5-yl)-1H-indazol-5-yl)amino)-5,6,7,8-tetrahydroquinoline-3-carbonitrile] were, in that order, 100 to 1000 nM and 100 to 1000 nM.
The matching figures for `N#Cc1cnc2c(c1Cl)CCC[C@@H]2Nc1ccc2[nH]nc(-c3cnco3)c2c1` (single isomer, unassigned) [Example 144, enantiomer 2, 4-Chloro-8-((3-(oxazol-5-yl)-1H-indazol-5-yl)amino)-5,6,7,8-tetrahydroquinoline-3-carbonitrile]: < 100 nM and < 100 nM.
With `N#Cc1cnc2c(c1C(F)(F)F)CCC[C@@H]2Nc1ccc2[nH]nc(-c3cnco3)c2c1` (single isomer, unassigned) [Example 145, enantiomer 1, 8-((3-(Oxazol-5-yl)-1H-indazol-5-yl)amino)-4-(trifluoromethyl)-5,6,7,8-tetrahydroquinoline-3-carbonitrile], the results for the IC50 at LRRK2 WT and at LRRK2 G2019S were 100 to 1000 nM and < 100 nM, respectively.
The matching figures for `COc1c(C#N)cnc2c1CCC[C@@H]2Nc1ccc2[nH]nc(-c3cnco3)c2c1` (single isomer, unassigned) [Example 146, enantiomer 1, 4-Methoxy-8-((3-(oxazol-5-yl)-1H-indazol-5-yl)amino)-5,6,7,8-tetrahydroquinoline-3-carbonitrile]: 100 to 1000 nM and < 100 nM.
Turning to `N#Cc1cnc2c(c1C(F)F)CCC[C@@H]2Nc1ccc2[nH]nc(-c3cnco3)c2c1` (single isomer, unassigned) [Example 147, enantiomer 1, 4-(Difluoromethyl)-8-((3-(oxazol-5-yl)-1H-indazol-5-yl)amino)-5,6,7,8-tetrahydroquinoline-3-carbonitrile], the IC50 at LRRK2 WT and on LRRK2 G2019S was < 100 nM in each case.
Regarding `N#Cc1cnc2c(c1C(F)F)CCC[C@@H]2Nc1ccc2[nH]nc(-c3cnco3)c2c1` (single isomer, unassigned) [Example 147, enantiomer 2, 4-(Difluoromethyl)-8-((3-(oxazol-5-yl)-1H-indazol-5-yl)amino)-5,6,7,8-tetrahydroquinoline-3-carbonitrile], the IC50 was 100 to 1000 nM on LRRK2 WT and < 100 nM on LRRK2 G2019S.
As for `N#Cc1cnc2c(c1)CCC[C@@H]2Nc1ccc2[nH]nc(-c3ccc[nH]3)c2c1` (single isomer, unassigned) [Example 148, enantiomer 1, 8-((3-(1H-Pyrrol-2-yl)-1H-indazol-5-yl)amino)-5,6,7,8-tetrahydroquinoline-3-carbonitrile], the IC50 on LRRK2 WT and on LRRK2 G2019S was < 100 nM throughout.
With `N#Cc1cnc2c(c1)CCC[C@@H]2Nc1ccc2[nH]nc(-c3ccc[nH]3)c2c1` (single isomer, unassigned) [Example 148, enantiomer 2, 8-((3-(1H-Pyrrol-2-yl)-1H-indazol-5-yl)amino)-5,6,7,8-tetrahydroquinoline-3-carbonitrile], the IC50 at LRRK2 WT and at LRRK2 G2019S was 100 to 1000 nM each time.
Consider `Cn1ccc(-c2n[nH]c3ccc(N[C@H]4CCCc5cc(C#N)cnc54)cc23)c1` (single isomer, unassigned) [Example 149, enantiomer 1, 8-((3-(1-Methyl-1H-pyrrol-3-yl)-1H-indazol-5-yl)amino)-5,6,7,8-tetrahydroquinoline-3-carbonitrile], for which the IC50 on LRRK2 WT and at LRRK2 G2019S was 100 to 1000 nM each time.
As for `Cn1ccc(-c2n[nH]c3ccc(N[C@H]4CCCc5cc(C#N)cnc54)cc23)c1` (single isomer, unassigned) [Example 149, enantiomer 2, 8-((3-(1-Methyl-1H-pyrrol-3-yl)-1H-indazol-5-yl)amino)-5,6,7,8-tetrahydroquinoline-3-carbonitrile], the IC50 on LRRK2 WT and at LRRK2 G2019S was < 100 nM in each case.

The term IC50 denotes the midpoint of a concentration-inhibition curve.
